Data: US10519145B2, “Pyrazole-oxazolidinone compound for anti-hepatitis B virus” (Shanghai Zhimeng Biopharma Co., Ltd., priority 2016, dated 2019)

Key:
[1] = system: HBV genotype HE974371 (A2); test: Anti-different genotypic HBV strain activity assay in vitro, transient transfection; format: cell-based; conditions: Hepatitis B virus, HepG2
Protocol: (§1) Compounds were tested for in vitro activity against different genotypic HBV strains using a transient transfection cell model. HepG2 cells (4×10^4 cells/well) that had been transfected with different HBV genotypic strains were seeded into 96-well plates and cultured overnight at 37° C. in 5% CO2. The next day, fresh cultures containing compounds in different concentrations were added into the culture wells. On the fifth day, the old culture medium in the culture wells was aspirated and removed. The fresh medium containing compounds in different concentrations was added. On the eighth day, supernatants in the culture wells were collected and used to extract HBV DNA in the supernatant. qPCR assay was used to detected HBV DNA content in the HepG2 supernatant.

[2] = system: HBV genotype U95551 (D); test: as above; format: cell-based; conditions: Hepatitis B virus, HepG2
Protocol: as §1

[3] = system: HBV genotype AB246346 (C); test: as above; format: cell-based; conditions: Hepatitis B virus, HepG2
Protocol: as §1

[4] = system: HBV genotype AB246345 (C); test: as above; format: cell-based; conditions: Hepatitis B virus, HepG2
Protocol: as §1

[5] = system: HBV genotype JN406371 (B); test: as above; format: cell-based; conditions: Hepatitis B virus, HepG2
Protocol: as §1

[6] = system: HBV genotype AB033554 (B); test: as above; format: cell-based; conditions: Hepatitis B virus, HepG2
Protocol: as §1

[7] = system: HBV genotype AP007263 (A); test: as above; format: cell-based; conditions: Hepatitis B virus, HepG2
Protocol: as §1

[8] = system: HBV strain U95551 (WT); test: In vitro anti-nucleoside drug-resistant HBV strain activity experiment, transient transfection; format: cell-based; conditions: Hepatitis B virus, transfected HepG2 cells
Protocol: as §1, with “against nucleoside drug-resistant” for “against different genotypic”, “with nucleoside drug-resistant” for “with different”, “HBV” for “HBV genotypic”, “to detect” for “to detected”

[9] = system: nucleoside drug-resistant HBV strain M204I + S202G; test: as above; format: cell-based; conditions: Hepatitis B virus, HepG2, 192 h
Protocol: as §1, with “against nucleoside drug-resistant” for “against different genotypic”, “with nucleoside drug-resistant” for “with different”, “HBV” for “HBV genotypic”, “to detect” for “to detected”

[10] = system: nucleoside drug-resistant HBV strain M204I + V173L; test: as above; format: cell-based; conditions: Hepatitis B virus, HepG2, 192 h
Protocol: as §1, with “against nucleoside drug-resistant” for “against different genotypic”, “with nucleoside drug-resistant” for “with different”, “HBV” for “HBV genotypic”, “to detect” for “to detected”

[11] = system: nucleoside drug-resistant HBV strain L180M + M204V; test: as above; format: cell-based; conditions: Hepatitis B virus, HepG2, 192 h
Protocol: as §1, with “against nucleoside drug-resistant” for “against different genotypic”, “with nucleoside drug-resistant” for “with different”, “HBV” for “HBV genotypic”, “to detect” for “to detected”

[12] = system: nucleoside drug-resistant HBV strain M204I + S202G + M250V; test: as above; format: cell-based; conditions: Hepatitis B virus, HepG2, 192 h
Protocol: as §1, with “against nucleoside drug-resistant” for “against different genotypic”, “with nucleoside drug-resistant” for “with different”, “HBV” for “HBV genotypic”, “to detect” for “to detected”

[13] = system: nucleoside drug-resistant HBV strain M204I; test: as above; format: cell-based; conditions: Hepatitis B virus, HepG2
Protocol: as §1, with “against nucleoside drug-resistant” for “against different genotypic”, “with nucleoside drug-resistant” for “with different”, “HBV” for “HBV genotypic”, “to detect” for “to detected”

[14] = system: HBV (HepG2.2.15 cells); test: Anti-HBV activity experiment in vitro (HepG2.2.15, HBV DNA in supernatant, qPCR); format: cell-based; conditions: Hepatitis B virus, HBV DNA in supernatant by qPCR, eighth day
Protocol: Compound Dilution: initial concentrations of all compounds used in the anti-HBV activity experiments in vitro were 1 μM, 3-fold diluted into 8 concentrations; initial concentrations of all compounds used in the cytotoxicity assay were 100 μM, 3-fold diluted into 8 concentrations; and the mother liquor of the compound was diluted with DMSO.
Anti-HBV Activity Experiment In Vitro: HepG2.2.15 cells (4×10^4 cells/well) were seeded in 96-well plates and cultured overnight at 37° C. in 5% CO2. The next day, fresh cultures containing compounds in different concentrations were added into the culture wells. On the fifth day, the old culture medium in the culture wells was aspirated and removed. Fresh medium containing compounds in different concentrations was added. On the eighth day, supernatants in the culture wells were collected and used to extract HBV DNA in the supernatant. qPCR assay was used to detect HBV DNA content in the HepG2.2.15 supernatant.
The data analysis and the percentage of inhibition calculation: the percentage of inhibition was calculated by using the following formula: Inhibition %=[(HBV amount in DMSO control−HBV amount in sample)/HBV amount in DMSO control]×100%.

[15] = system: HBV DNA in mouse plasma; test: Determination of pharmacodynamics in vivo (high pressure tail vein injection of HBV DNA); conditions: 25 mpk, intraperitoneal daily
Protocol: High pressure injection of HBV DNA in tail vein and administration methods:
HBV plasmid DNA solution was high-pressure injected via the tail veins of the mouse: the plasmid DNA was pre-dissolved in physiological saline (10 μg/1.4 ml, 10 μg/1.5 ml) before injection and stored at 4 until its use. The mice were injected with a plasmid DNA solution at a dosage of 8% of the body weight from the tail vein in 5 seconds. If the injection volume is less than or equal to 1.4 ml, 10 μg/1.4 ml of plasmid solution was used; if the injection volume is greater than or equal to 1.5 ml, 10 μg/1.5 ml of plasmid solution was used.
On 1st-7th day, the mice were continuously injected intraperitoneally with the test compound or solvent for 7 days. […] The plasma was divided into two and one was sent to anti-infective groups in the Department of Biology for HBV DNA detection, and the other was ready for use. […]
Quantitative PCR was used to detect the content of HBV DNA in mouse plasma. […]
Quantitative PCR detection of HBV DNA content: In order to rule out possible interference with injected HBV plasmid DNA, two sets of primers and probes were used simultaneously for the assay. […]
HBV DNA content =DNA content detected by HBV primers - DNA content detected by pAAV2 primers

[16] = Pharmacokinetic determination in mice (subcutaneous); format: in vivo; conditions: sc, female BALB/c mouse, single administration, plasma
Protocol: In addition, the pharmacokinetics of the compound of Example 3 (R isomer) in the present application was determined in mice.
Test compounds were subcutaneously administered to female BALB/c mouse once and blood samples were taken at different time points. LC/MS/MS was used to determine the concentration of the test compounds in the […] plasma after administration of the test compounds and calculate relevant parameters.
Animal blood collection time points were: before administration, 5 min, […], 30 min, 1 h, 2 h, 4 h, 8 h and 24 h after administration.
Mass Spectrometer: Triple Quad 5500. Mass Spectrometry Conditions: SRM Detection
Liquid phase conditions: Column: XSELECT CSHTM XP C18 (2.1×50 mm, 2.5 μm); chromatographic mobile phase: mobile phase A: 0.025% FA & 1 mM NH4OAc in water/CAN solution (v:v, 95: 5), mobile phase B: 0.025% FA & 1 mM NH4OAc in ACN/water solution (v:v, 95: 5) (A:B =65%: 35%-10%: 90%); flow rate: 0.6 mL/min; column temperature: 50° C.
According to the drug blood concentration data, the pharmacokinetic parameters of the test compound were calculated using the pharmacokinetic calculation software WinNonlin 5.2 non-compartmental model.

| Compound | EC50 [1] | EC50 [2] | EC50 [3] | EC50 [4] | EC50 [5] | EC50 [6] | EC50 [7] | EC50 [8] | EC50 [9] | EC50 [10] | EC50 [11] | EC50 [12] | EC50 [13] | further results |
| --- | --- | --- | --- | --- | --- | --- | --- | --- | --- | --- | --- | --- | --- | --- |
| Nc1ccn([C@@H]2CS[C@H](CO)O2)c(=O)n1 [Lamivudine, 3′-thio-2′,3′-dideoxycytidine, reference compound] | 136 nM | 123 nM | 128 nM | 97.2 nM | 112 nM | 156 nM | 136 nM | 94.9 nM | > 100000 nM | > 100000 nM | > 100000 nM | > 100000 nM | > 100000 nM |  |
| O=C1CO[C@H](c2cn(-c3ccc(Br)cc3)nc2-c2ccc(F)cc2)N1CCc1ccc2[nH]c(=O)[nH]c2c1 [example 3 R isomer, (R)-3-(2-(2-oxo-2,3-dihydro-1H-benzo[d]imidazol-5-yl)ethyl)-2-(1-(4-bromophenyl)-3-(4-fluorophenyl)-1H-pyrazol-4-yl)-oxazolidin-4-one] | 4.67 nM | 14.4 nM | 14.6 nM | 6.26 nM | 8.69 nM | 13.6 nM | 33.9 nM | 19.1 nM | 11.6 nM | 14 nM | 18.9 nM | 13.6 nM | 21.2 nM | EC50 [14]: 7.68 nM; decrease of HBV DNA content in mouse plasma ([15]; 1st day): 0.55 log; decrease of HBV DNA content in mouse plasma ([15]; 3rd day): 1.84 log; AUC(0-inf) [16]: 2080 ng·h/mL; Cmax [16]: 643 ng/mL; Tmax [16]: 1.33 h; half-life [16]: 1.19 h; MRT inf ([16]; read-out: MRT0-inf): 2.4 h |
